pIC50: −log10 of the molar value.

19 compounds from patent publication US9884063B2, “Amido-substituted azole compounds” (Bayer Pharma Aktiengesellschaft, priority 2014, dated 2018) can be followed below.

This assay concerns the target T1, TNKS1 (Homo sapiens, UniProt O95271).
T1 sequence (O95271 1-1327): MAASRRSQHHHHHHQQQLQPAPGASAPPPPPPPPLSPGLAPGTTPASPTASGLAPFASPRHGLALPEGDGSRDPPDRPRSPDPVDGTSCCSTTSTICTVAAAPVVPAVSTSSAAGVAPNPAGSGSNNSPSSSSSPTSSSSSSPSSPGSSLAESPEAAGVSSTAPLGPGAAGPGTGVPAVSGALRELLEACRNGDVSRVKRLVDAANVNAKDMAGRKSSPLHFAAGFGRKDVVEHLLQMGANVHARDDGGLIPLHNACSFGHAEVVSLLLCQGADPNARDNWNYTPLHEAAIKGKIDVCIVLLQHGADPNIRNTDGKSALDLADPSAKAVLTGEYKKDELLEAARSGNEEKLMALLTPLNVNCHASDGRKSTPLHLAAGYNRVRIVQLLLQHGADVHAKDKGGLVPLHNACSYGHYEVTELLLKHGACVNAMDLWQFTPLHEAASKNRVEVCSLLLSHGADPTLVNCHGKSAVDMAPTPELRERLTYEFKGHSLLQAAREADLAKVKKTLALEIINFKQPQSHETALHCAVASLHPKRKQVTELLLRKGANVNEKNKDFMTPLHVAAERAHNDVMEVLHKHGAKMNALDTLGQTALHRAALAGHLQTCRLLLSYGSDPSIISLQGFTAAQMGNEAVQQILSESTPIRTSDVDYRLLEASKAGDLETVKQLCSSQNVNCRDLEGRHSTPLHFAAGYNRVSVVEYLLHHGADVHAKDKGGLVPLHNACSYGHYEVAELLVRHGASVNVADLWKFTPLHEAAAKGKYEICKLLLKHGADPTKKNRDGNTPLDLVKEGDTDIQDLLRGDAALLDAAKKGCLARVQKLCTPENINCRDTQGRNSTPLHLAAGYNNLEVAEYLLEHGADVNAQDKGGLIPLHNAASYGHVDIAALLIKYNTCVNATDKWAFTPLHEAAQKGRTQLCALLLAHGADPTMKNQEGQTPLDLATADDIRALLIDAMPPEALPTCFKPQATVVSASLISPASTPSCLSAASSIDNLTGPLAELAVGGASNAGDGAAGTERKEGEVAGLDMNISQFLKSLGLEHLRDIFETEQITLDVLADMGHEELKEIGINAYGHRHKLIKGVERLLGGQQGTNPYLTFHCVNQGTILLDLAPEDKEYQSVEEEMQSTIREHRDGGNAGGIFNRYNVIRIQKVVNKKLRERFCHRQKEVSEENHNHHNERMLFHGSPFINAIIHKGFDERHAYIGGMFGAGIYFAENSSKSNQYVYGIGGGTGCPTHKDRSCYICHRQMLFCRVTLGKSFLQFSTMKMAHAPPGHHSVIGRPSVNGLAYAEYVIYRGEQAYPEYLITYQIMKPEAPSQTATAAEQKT
Put plainly: Modified TNKS1 Assay 3 (BPS kit #80573, biotin-NAD+, 96 well). In kind it is biochemical. As to conditions: human TNKS1, BPS kit #80573, 96 well. The method, boiled down: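 Chemiluminescent assay of TNKS1-catalysed ribosylation of a protein substrate with biotin-labelled NAD+, detected via streptavidin-HRP; run per kit protocol. Inhibition lowers the signal, and IC50 is the compound concentration halving the normalised readout.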

On to `O=C(Nc1ccc(NC(=O)c2nc[nH]c2C(=O)NCCN2CCC[C@@H](F)C2)cc1)c1ccc(F)cc1Cl` [Example 277, N^4-{4-[(2-chloro-4-fluorobenzoyl)amino]phenyl}-N^5-{2-[(3R)-3-fluoropiperidin-1-yl]ethyl}-1H-imidazole-4,5-dicarboxamide], for which the pIC50 (commonly −log10 of the IC50, conventionally taken in molar units) is 7.15. On to `O=C(Nc1ccc(NC(=O)c2[nH]cnc2C(=O)N2CC(F)C2)cc1)c1ccc(F)cc1Cl` [Example 41, N-{4-[(2-chloro-4-fluorobenzoyl)amino]phenyl}-4-[(3-fluoroazetidin-1-yl)carbonyl]-1H-imidazole-5-carboxamide], for which the pIC50 is below 6.30.

Compound `CC(C)[C@@H](C)NC(=O)c1[nH]cnc1C(=O)Nc1ccc(NC(=O)c2ccc(F)cc2Cl)cc1` [Example 134, N^4-{4-[(2-chloro-4-fluorobenzoyl)amino]phenyl}-N^5-[(2R)-3-methylbutan-2-yl]-1H-imidazole-4,5-dicarboxamide] showed a pIC50 of 6.44. With `O=C(Nc1ccc(NC(=O)c2nc[nH]c2C(=O)NCCN2CCC(F)(F)CC2)cc1)c1ccc(F)cc1Cl` [Example 224, N^4-{4-[(2-chloro-4-fluorobenzoyl)amino]phenyl}-N^5-[2-(4,4-difluoropiperidin-1-yl)ethyl]-1H-imidazole-4,5-dicarboxamide] the figure was 6.59.

`O=C(Nc1ccc(NC(=O)c2[nH]cnc2C(=O)NCCN2CCCCC2)cc1)c1cc(OC(F)(F)F)ccc1Br` [Example 63, N^5-(4-{[2-bromo-5-(trifluoromethoxy)benzoyl]amino}phenyl)-N^4-[2-(piperidin-1-yl)ethyl]-1H-imidazole-4,5-dicarboxamide]: the pIC50 was 7.15.

Take `O=C(Nc1ccc(NC(=O)c2nc[nH]c2C(=O)NCC2CC2)cc1)c1ccc(F)cc1Cl` [Example 128, N^4-{4-[(2-chloro-4-fluorobenzoyl)amino]phenyl}-N^5-(cyclopropylmethyl)-1H-imidazole-4,5-dicarboxamide]: the pIC50 was below 6.30. `CNC(=O)c1nc[nH]c1C(=O)Nc1ccc(NC(=O)c2cccc(C)c2Cl)cc1` [Example 346, N^5-{4-[(2-chloro-3-methylbenzoyl)amino]phenyl}-N^4-methyl-1H-imidazole-4,5-dicarboxamide] had a pIC50 below 6.30. In the case of `CCNC(=O)c1[nH]cnc1C(=O)Nc1ccc(NC(=O)c2ccc(F)cc2Cl)cc1` [Example 138, N^4-{4-[(2-chloro-4-fluorobenzoyl)amino]phenyl}-N^5-ethyl-1H-imidazole-4,5-dicarboxamide] it was 6.59. In the case of `O=C(Nc1ccc(NC(=O)c2nc[nH]c2C(=O)NC2CCOCC2)cc1)c1ccc(F)cc1Cl` [Example 234, N^4-{4-[(2-chloro-4-fluorobenzoyl)amino]phenyl}-N^5-(tetrahydro-2H-pyran-4-yl)-1H-imidazole-4,5-dicarboxamide] it was 6.66.

Compound `O=C(Nc1ccc(NC(=O)c2nc[nH]c2C(=O)NCC2CCOC2)cc1)c1ccc(F)cc1Cl` (stereo not shown) [Example 235, N^4-{4-[(2-chloro-4-fluorobenzoyl)amino]phenyl}-N^5-(tetrahydrofuran-3-ylmethyl)-1H-imidazole-4,5-dicarboxamide] gave a pIC50 of 6.57. In the case of `CC1CCCN(CCNC(=O)c2[nH]cnc2C(=O)Nc2ccc(NC(=O)c3ccccc3Cl)cc2)C1` (stereo not shown) [Example 210, N^4-{4-[(2-chlorobenzoyl)amino]phenyl}-N^5-[2-(3-methylpiperidin-1-yl)ethyl]-1H-imidazole-4,5-dicarboxamide] it was 7.70; in that of `CC(C)(O)CNC(=O)c1[nH]cnc1C(=O)Nc1ccc(NC(=O)c2ccc(F)cc2Cl)cc1` [Example 223, N^4-{4-[(2-chloro-4-fluorobenzoyl)amino]phenyl}-N^5-(2-hydroxy-2-methylpropyl)-1H-imidazole-4,5-dicarboxamide], below 6.30. With `CNC(=O)c1nc[nH]c1C(=O)Nc1ccc(NC(=O)c2ccccc2Cl)c(OC)c1` [Example 99, N^5-{4-[(2-chlorobenzoyl)amino]-3-methoxyphenyl}-N^4-methyl-1H-imidazole-4,5-dicarboxamide] the figure was below 6.30; with `O=C(Nc1ccc(NC(=O)c2nc[nH]c2C(=O)NCCN2CCC(F)(F)CC2)cc1)c1ccccc1Cl` [Example 214, N^4-{4-[(2-chlorobenzoyl)amino]phenyl}-N^5-[2-(4,4-difluoropiperidin-1-yl)ethyl]-1H-imidazole-4,5-dicarboxamide], 6.70. In turn, `O=C(Nc1ccc(NC(=O)c2nc[nH]c2C(=O)NCCN2CCC(F)CC2)cc1)c1ccc(F)cc1Cl` [Example 230, N^4-{4-[(2-chloro-4-fluorobenzoyl)amino]phenyl}-N^5-[2-(4-fluoropiperidin-1-yl)ethyl]-1H-imidazole-4,5-dicarboxamide] gave a pIC50 of 7.05. Compound `COC(=O)c1nc[nH]c1C(=O)Nc1ccc(NC(=O)c2ccc(F)cc2Cl)cc1` [Example 13, Methyl 5-({4-[(2-chloro-4-fluorobenzoyl)amino]phenyl}carbamoyl)-1H-imidazole-4-carboxylate] had a pIC50 of 7.22. In the case of `O=C(Nc1ccc(NC(=O)c2[nH]cnc2C(=O)NC2CC2)cc1)c1ccc(F)cc1Cl` [Example 45, N^5-{4-[(2-chloro-4-fluorobenzoyl)amino]phenyl}-N^4-cyclopropyl-1H-imidazole-4,5-dicarboxamide] it was 7.15; in that of `CC(CN1CCOCC1)NC(=O)c1[nH]cnc1C(=O)Nc1ccc(NC(=O)c2ccc(F)cc2)cc1` (single isomer, unassigned; enantiomer 2) [Example 296, N^4-{4-[(4-fluorobenzoyl)amino]phenyl}-N^5-[1-(morpholin-4-yl)propan-2-yl]-1H-imidazole-4,5-dicarboxamide (enantiomer 2)], below 6.30. In the case of `NC(=O)c1nc[nH]c1C(=O)Nc1ccc(NC(=O)c2ccccc2Cl)cc1` [Example 120, N^5-{4-[(2-chlorobenzoyl)amino]phenyl}-1H-imidazole-4,5-dicarboxamide], the pIC50 was below 6.30.
